Reference: publication PMC4377892, “Gastroprotective Efficacy and Safety Evaluation of Scoparone Derivatives on Experimentally Induced Gastric Lesions in Rodents” (Nutrients, 2015)
Blank lines part the entries; values can stand above or below the compound they belong to.

Assays:
CYP3A4 = CYP3A4 (Homo sapiens, UniProt P08684); test: in vitro; conditions: recombinant enzyme
Procedure: (§1) The inhibition assays for human cytochrome P450 (CYP) enzyme activities were performed in multiwall plates using CYP2C9 and CYP3A4 screening kits (Invitrogen Co., Carlsbad, CA, USA) according to the manufacturer’s instruction. The test compounds Ketoconazole (a positive inhibition control for CYP3A4) or Sulfaphenazole (a positive inhibition control for CYP2C9) were mixed with each master pre-mix comprising CYP2C9 or CYP3A4 BACULOSOMES® reagent and the regeneration system, which contained glucose-6-phosphate and glucose-6-phosphate dehydrogenase. The mixture was incubated at room temperature for 20 min. Following incubation, a CYP enzyme-specific substrate (Vivid BOMCC) and NADP^+ were added and the mixture was incubated at room temperature for 30 min. The reaction was stopped by the addition of a Stop Reagent (CYP450 isozyme specific inhibitors). CYP activity was evaluated by measuring the fluorescence of the fluorescent metabolite generated from each CYP enzyme-specific substrate. The fluorescence was measured using a fluorescent plate reader at 409 nm (excitation) and 460 nm (emission). All experiments were performed in duplicate, and the results are expressed as percent inhibition.

CYP2C9 = CYP2C9 (Homo sapiens, UniProt P11712); test: in vitro
Chain of CYP2C9 (P11712 whole entry): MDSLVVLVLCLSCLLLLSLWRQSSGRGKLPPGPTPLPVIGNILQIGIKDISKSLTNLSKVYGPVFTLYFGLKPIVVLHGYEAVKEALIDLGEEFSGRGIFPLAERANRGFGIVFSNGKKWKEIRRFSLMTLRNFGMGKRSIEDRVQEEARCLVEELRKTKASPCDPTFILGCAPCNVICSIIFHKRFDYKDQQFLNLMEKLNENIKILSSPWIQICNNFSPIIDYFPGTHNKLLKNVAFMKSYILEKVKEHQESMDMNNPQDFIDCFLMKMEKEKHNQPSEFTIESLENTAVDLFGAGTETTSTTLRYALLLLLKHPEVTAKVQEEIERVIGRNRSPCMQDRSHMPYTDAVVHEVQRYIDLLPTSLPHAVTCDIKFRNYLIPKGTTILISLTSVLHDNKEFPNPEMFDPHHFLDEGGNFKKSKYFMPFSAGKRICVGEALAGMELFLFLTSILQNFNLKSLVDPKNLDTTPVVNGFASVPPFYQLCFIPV
Procedure: as §1

[1] = test system: indomethacin-induced gastric ulcers; test: Indomethacin-induced gastritis in rats; type: in vivo, Sprague-Dawley (S.D.) rats; conditions: for gastroprotective activity (in words): oral 40 mg/kg, indomethacin-induced GU, rats; for GU reversal: stated for both HCl/ethanol- and indomethacin-induced GU
Procedure: The male S.D. rats were fasted for 24 h prior to oral dosing with normal saline, rebamipide, or test compounds at a dose of 40 mg/kg body weight. One hour after treatment, all animals orally received 0.5 mL indomethacin solution (80 mg/kg body weight, suspended in 5% sodium bicarbonate). Animals were sacrificed by cervical dislocation 6 h after the administration of indomethacin solution, the stomach was removed and fixed in 2% formalin solution for 30 min, opened along the greater curvature, and photographed using a camera attached to a dissection microscope. Total area (mm^2) of mucosal erosive lesion was measured and the % protection was calculated as described above.

[2] = test system: HCl/ethanol-induced gastric ulcers; test: HCl/ethanol-induced gastritis in rats; type: in vivo, Sprague-Dawley (S.D.) rats; conditions: HCl/ethanol-induced GU; for ED50: Rattus norvegicus, oral, dose-response, rats, read-out: ED50 (50% protection against GU)
Procedure: The male S.D. rats were fasted for 24 h prior to oral dosing with the normal saline (vehicle), rebamipide (a positive control), or test compounds (Figure 1) at a range of doses, which are described in the results. One hour after the treatments, all animals orally received 0.5 mL of a mixture of 0.15 M HCl and 60% ethanol solution. Animals were sacrificed by cervical dislocation 3 h after the administration of HCl/ethanol solution, the stomach was removed and fixed in 4% formalin solution for 1 h, opened along the greater curvature, and photographed using a camera attached to a dissection microscope. Total area (mm^2) of mucosal erosive lesion was measured using Photoshop CS4 Extended (Adobe, San Jose, CA, USA) software. The percentage of ulcer inhibition by test compounds was calculated by the following formula: % protection of ulceration = ((%Uarea vehicle treated ulcer control–%Uarea compound treated)/%Uarea vehicle treated ulcer control) × 100(1) where %Uarea is the percent ulcer area of the total gastric mucosa area. ED50 values (50% protection against GU) were calculated from the dose-response curves of logarithmic plots of each test compound.

ICR mice = test: Acute oral toxicity in mice; type: in vivo; conditions: for Mortality / Relative Organ Weight, Heart / Relative Organ Weight, Kidney / Relative Organ Weight, Liver / Relative Organ Weight, Lung / Relative Organ Weight, Spleen / alteration in body weight vs vehicle control (in words): single oral 1000 mg/kg, 14 days; for Mortality: deaths/animals; for Relative Organ Weight, Heart / Relative Organ Weight, Kidney / Relative Organ Weight, Liver / Relative Organ Weight, Lung / Relative Organ Weight, Spleen: mean ± SEM n = 10; for LD50: oral, Probit method; for alteration in body weight vs vehicle control (in words): male and female ICR mice; for acute toxicity (in words): single oral administration 1000 mg/kg body weight, ICR mice
Procedure: Acute toxicity studies were performed both in male and female ICR mice as described previously. Vehicle control and test compound treated groups consisted of 10 animals each. Mice were acclimatized for 7 days before experimentation. Before dosing with test compounds, animals were fasted for 24 h with access to adequate drinking water in cases with wire mesh bottoms, to prevent coprophagy. The treated group received test compounds, and the control group received saline by gavage at a dose of 1000 mg/kg body weight. […] The mortality, body measurements, and behavior were assessed and recorded daily for 14 days after treatment. The macroscopic analyses and weight of vital organs, such as the liver, kidney, spleen, lung, and heart were compared between the animals treated with test compounds and vehicle.

adherent gastric mucus = test: Measurement of adherent gastric mucus (alcian blue) in HCl/ethanol-treated rats; type: in vivo, Sprague-Dawley (S.D.) rats; conditions: 20 mg/kg body weight oral, 1 h before HCl/ethanol, mean ± SEM n = 6
Procedure: The male S.D. rats were fasted for 24 h prior to oral dosing with normal saline, rebamipide, or test compounds at a dose of 20 mg/kg body weight. One hour after the treatments, all animals orally received 0.5 mL of a mixture of 0.15 M HCl and 60% ethanol solution. Animals were sacrificed by cervical dislocation 3 h after the administration of HCl/ethanol solution, the stomach was removed, and parts of the stomach mucosa were rinsed with ice-cold 0.25 M sucrose. Measurement of adherent gastric mucosal mucus was assayed using alcian blue, a dye which stains acid mucosubstances, as previously described. In brief, a 100 mm^2 portion of the glandular region of the stomach was excised with a scalpel, and soaked in 0.1% alcian blue dissolved in 0.16 M of sucrose buffered with 0.05 M sodium acetate (pH 5.8) for 2 h. The unbound dye was removed using two successive washes with 0.25 M sucrose. The dye complex with mucus was extracted using 30% docusate sodium salt for 2 h. After centrifugation at 2600× g for 10 min, the optical density of the alcian blue solution was measured at 620 nm and calculated using the calibration curve. The adherent gastric mucosal mucus was expressed as the amount of the alcian blue (μg/g tissue).

[3] = single oral dose 40 mg/kg body weight, S.D. rats

Chain of CYP3A4 (P08684 whole entry): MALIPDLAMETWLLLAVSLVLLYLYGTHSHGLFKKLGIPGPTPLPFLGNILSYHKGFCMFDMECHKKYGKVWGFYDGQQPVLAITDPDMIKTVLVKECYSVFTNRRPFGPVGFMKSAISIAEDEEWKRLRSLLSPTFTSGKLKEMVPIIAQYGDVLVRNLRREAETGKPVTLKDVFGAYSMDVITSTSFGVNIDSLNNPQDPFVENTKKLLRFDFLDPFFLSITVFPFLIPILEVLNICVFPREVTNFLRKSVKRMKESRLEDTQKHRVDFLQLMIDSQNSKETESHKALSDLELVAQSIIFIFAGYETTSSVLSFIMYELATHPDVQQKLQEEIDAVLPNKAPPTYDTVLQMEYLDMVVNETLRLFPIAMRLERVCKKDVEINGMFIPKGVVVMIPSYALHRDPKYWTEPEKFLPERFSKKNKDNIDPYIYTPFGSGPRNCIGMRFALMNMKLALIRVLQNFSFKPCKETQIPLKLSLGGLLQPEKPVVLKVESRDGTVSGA

Structure (SMILES): COc1cc2oc(=O)ccc2c(OC)c1OC [Compound 2, 5,6,7-Trimethoxycoumarin]
- inhibition at 30 min, 10 µM (CYP3A4): 19.1%
- inhibition at 30 min, 10 µM (CYP2C9; recombinant CYP2C9 BACULOSOMES, probe Vivid BOMCC): 0%
- Mortality (ICR mice; female mice): 0/10
- Relative Organ Weight, Heart (ICR mice; female mice): 0.47 ± 0.05 % body weight
- Relative Organ Weight, Kidney (ICR mice; female mice): 1.22 ± 0.09 % body weight
- Relative Organ Weight, Liver (ICR mice; female mice): 4.21 ± 0.64 % body weight
- Relative Organ Weight, Lung (ICR mice; female mice): 0.69 ± 0.07 % body weight
- Relative Organ Weight, Spleen (ICR mice; female mice): 0.45 ± 0.09 % body weight
- Mortality (ICR mice; male mice): 0/10
- Relative Organ Weight, Heart (ICR mice; male mice): 0.46 ± 0.07 % body weight
- Relative Organ Weight, Kidney (ICR mice; male mice): 1.56 ± 0.05 % body weight
- Relative Organ Weight, Liver (ICR mice; male mice): 5.84 ± 0.23 % body weight
- Relative Organ Weight, Lung (ICR mice; male mice): 0.68 ± 0.05 % body weight
- Relative Organ Weight, Spleen (ICR mice; male mice): 0.36 ± 0.08 % body weight
- LD50 (ICR mice; female ICR mice): 3857 mg/kg body weight
- LD50 (ICR mice; male ICR mice): 3812 mg/kg body weight
- alteration in body weight vs vehicle control (in words) (ICR mice): no significant alteration
- acute toxicity (in words) (ICR mice): no toxicity
- gastroprotective activity (in words) [1]: effectively inhibited
- GU reversal [1]: over 90%
- Adherent Mucus (adherent gastric mucus): 1424 ± 83 μg alcian blue/g tissue
- ED50 [2]: 3.94 mg/kg
- protection rate (gastric lesion) [2, 3]: 90.0%

Structure (SMILES): COc1cc2ccc(=O)oc2c(OC)c1OC [Compound 3, 6,7,8-trimethoxycoumarin]
- inhibition at 30 min, 10 µM (CYP3A4): 15.8%
- inhibition at 30 min, 10 µM (CYP2C9; recombinant enzyme): 0%
- Mortality (ICR mice; female mice): 0/10
- Relative Organ Weight, Heart (ICR mice; female mice): 0.54 ± 0.05 % body weight
- Relative Organ Weight, Kidney (ICR mice; female mice): 1.34 ± 0.05 % body weight
- Relative Organ Weight, Liver (ICR mice; female mice): 6.86 ± 0.78 % body weight
- Relative Organ Weight, Lung (ICR mice; female mice): 0.79 ± 0.06 % body weight
- Relative Organ Weight, Spleen (ICR mice; female mice): 0.48 ± 0.10 % body weight
- Mortality (ICR mice; male mice): 0/10
- Relative Organ Weight, Heart (ICR mice; male mice): 0.50 ± 0.02 % body weight
- Relative Organ Weight, Kidney (ICR mice; male mice): 1.58 ± 0.06 % body weight
- Relative Organ Weight, Liver (ICR mice; male mice): 4.92 ± 0.24 % body weight
- Relative Organ Weight, Lung (ICR mice; male mice): 0.69 ± 0.06 % body weight
- Relative Organ Weight, Spleen (ICR mice; male mice): 0.40 ± 0.07 % body weight
- LD50 (ICR mice; female ICR mice): 3500 mg/kg body weight
- LD50 (ICR mice; male ICR mice): 2111 mg/kg body weight
- alteration in body weight vs vehicle control (in words) (ICR mice): no significant alteration
- acute toxicity (in words) (ICR mice): no toxicity
- gastroprotective activity (in words) [1]: effectively inhibited
- GU reversal [1]: over 90%
- Adherent Mucus (adherent gastric mucus): 1876 ± 51 μg alcian blue/g tissue
- ED50 [2]: 2.93 mg/kg
- protection rate (gastric lesion) [2, 3]: 95.8%

Structure (SMILES): CC(=O)N1CCN(c2ccc(OCC3COC(Cn4ccnc4)(c4ccc(Cl)cc4Cl)O3)cc2)CC1 (stereo not shown) [Ketoconazole, reference compound]
- inhibition at 30 min, 20 µM (CYP3A4): 97.5%
- inhibition at 30 min, 20 µM (CYP2C9; recombinant enzyme): 0%

Structure (SMILES): O=C(NC(Cc1cc(=O)[nH]c2ccccc12)C(=O)O)c1ccc(Cl)cc1 (stereo not shown) [Rebamipide, reference compound]
- Adherent Mucus (adherent gastric mucus): 1584 ± 80 μg alcian blue/g tissue
- ED50 [2]: 9.53 mg/kg
- protection rate (gastric lesion) [2, 3]: 57.8%

Structure (SMILES): Nc1ccc(S(=O)(=O)Nc2ccnn2-c2ccccc2)cc1 [Sulfaphenazole, reference compound]
- inhibition at 30 min, 20 µM (CYP3A4): 0%
- inhibition at 30 min, 20 µM (CYP2C9; recombinant enzyme): 93.4%

Continued, in another order:

- inhibition at 30 min, 10 µM (CYP3A4): 32.7%
- inhibition at 30 min, 10 µM (CYP2C9; recombinant enzyme): 0%
Structure (SMILES): COc1cc2ccc(=O)oc2cc1OC [Compound 1, 6,7-dimethoxycoumarin]
- gastroprotective activity (in words) [1]: effectively inhibited
- ED50 [2]: 4.21 mg/kg
- gastroprotective activity (in words) [2, 3]: significantly protected

- melting point: 220 to 221 °C
Structure (SMILES): COc1cc2ccc(=O)oc2c2c1OCO2 [Compound 4, 6-methoxy-7,8-methylenedioxycoumarin]
- gastroprotective activity (in words) [1]: equipotent gastroprotective activity that of rebamipide
- protection rate (gastric lesion) [2, 3]: 93.1%

- melting point: 202 to 203 °C
Structure (SMILES): COc1cc2ccc(=O)oc2c2c1OC(OC)O2 (stereo not shown) [Compound 5, 6-Methoxy-7,8-(1-methoxy)methylenedioxycoumarin]

- melting point: 230 to 231 °C
Structure (SMILES): O=c1ccc2cc3c(cc2o1)OCO3 [Compound 6, 6,7-Methylenedioxycomarin]

- melting point: 205 to 206 °C
Structure (SMILES): COC1Oc2cc3ccc(=O)oc3cc2O1 (stereo not shown) [Compound 7, 6,7-(1-Methoxy)methylenedioxycoumarin]
